Data published in BindingDB's records for doi:10.1021/jm0004906 (Glaxosmithkline, 2001).

Target: T1, Gag-Pol polyprotein [588-1027]/[588-1147] (Human immunodeficiency virus 1, UniProt P04585)
T1 construct: 588-1027; 588-1147
Experiment: HIV-1 RT Assay
Details: not given
From the text: The IC50 of reverse transcriptase is the concentration that inhibits 50% of recombinant HIV-1 RT RNA-directed DNA polymerase activity in vitro.

| SMILES | IC50 [µM] |
| --- | --- |
| N#Cc1c(N)cccc1[S+]([O-])c1ccccc1Br (stereo not given) [2-amino-6-[(2-bromobenzene)sulfinyl]benzonitrile] | > 19 |
| Cc1ccccc1[S+]([O-])c1cccc(N)c1C#N (stereo not given) [2-amino-6-[(2-methylbenzene)sulfinyl]benzonitrile] | > 21 |
| N#Cc1cccc([S+]([O-])c2cccc(N)c2C#N)c1 (stereo not given) [2-amino-6-[(3-cyanobenzene)sulfinyl]benzonitrile] | > 15 |
| N#Cc1c(N)cccc1[S+]([O-])c1ccc(Br)cc1 (stereo not given) [2-amino-6-[(4-bromobenzene)sulfinyl]benzonitrile] | > 21 |
| N#Cc1c(N)cccc1S(=O)(=O)c1ccc(Br)cc1 [2-amino-6-[(4-bromobenzene)sulfonyl]benzonitrile] | > 14 |
| N#Cc1ccc([S+]([O-])c2cccc(N)c2C#N)cc1 (stereo not given) [2-amino-6-[(4-cyanobenzene)sulfinyl]benzonitrile] | > 23 |
| N#Cc1ccc(S(=O)(=O)c2cccc(N)c2C#N)cc1 [2-amino-6-[(4-cyanobenzene)sulfonyl]benzonitrile] | > 18 |
| COc1ccc([S+]([O-])c2cccc(N)c2C#N)cc1 (stereo not given) [2-amino-6-[(4-methoxybenzene)sulfinyl]benzonitrile] | > 20 |
| Cc1ccc([S+]([O-])c2cccc(N)c2C#N)cc1 (stereo not given) [2-amino-6-[(4-methylbenzene)sulfinyl]benzonitrile] | > 21 |
| N#Cc1c(N)cccc1[S+]([O-])c1cccc(C(F)(F)F)c1 (stereo not given) [2-amino-6-{[3-(trifluoromethyl)benzene]sulfinyl}benzonitrile] | > 22 |

Same assay, conditions: pH 8

| SMILES | IC50 [µM] |
| --- | --- |
| N#Cc1c(N)cccc1Sc1ccccc1Br [2-amino-6-[(2-bromophenyl)sulfanyl]benzonitrile] | > 21 |
| N#Cc1c(N)cccc1Sc1cccc(N)c1 [2-amino-6-[(3-aminophenyl)sulfanyl]benzonitrile] | > 23 |
| N#Cc1ccc(Sc2cccc(N)c2C#N)cc1 [2-amino-6-[(4-cyanophenyl)sulfanyl]benzonitrile] | > 19 |
| COc1ccc(Sc2cccc(N)c2C#N)cc1 [2-amino-6-[(4-methoxyphenyl)sulfanyl]benzonitrile] | > 17 |
| O=[N+]([O-])c1ccccc1Sc1ccccc1[N+](=O)[O-] [Bisnitrophenylsulfide] | > 20 |
